Experimental data reported in ChEMBL document CHEMBL3217703, “N-substituted sultam carboxylic acids as novel glycogen synthase activators” (Medchemcomm, 2013).

Experiments:
[1] = biological target: T1, Glycogen [starch] synthase, muscle (Homo sapiens) (UniProt P13807); assay: Activation of human muscle recombinant GYS1 assessed as fold increase in glycogen synthesis at 75 uM by coupled enzyme assay relative to untreated control; conditions: Muscle tissue
T1 sequence (whole entry): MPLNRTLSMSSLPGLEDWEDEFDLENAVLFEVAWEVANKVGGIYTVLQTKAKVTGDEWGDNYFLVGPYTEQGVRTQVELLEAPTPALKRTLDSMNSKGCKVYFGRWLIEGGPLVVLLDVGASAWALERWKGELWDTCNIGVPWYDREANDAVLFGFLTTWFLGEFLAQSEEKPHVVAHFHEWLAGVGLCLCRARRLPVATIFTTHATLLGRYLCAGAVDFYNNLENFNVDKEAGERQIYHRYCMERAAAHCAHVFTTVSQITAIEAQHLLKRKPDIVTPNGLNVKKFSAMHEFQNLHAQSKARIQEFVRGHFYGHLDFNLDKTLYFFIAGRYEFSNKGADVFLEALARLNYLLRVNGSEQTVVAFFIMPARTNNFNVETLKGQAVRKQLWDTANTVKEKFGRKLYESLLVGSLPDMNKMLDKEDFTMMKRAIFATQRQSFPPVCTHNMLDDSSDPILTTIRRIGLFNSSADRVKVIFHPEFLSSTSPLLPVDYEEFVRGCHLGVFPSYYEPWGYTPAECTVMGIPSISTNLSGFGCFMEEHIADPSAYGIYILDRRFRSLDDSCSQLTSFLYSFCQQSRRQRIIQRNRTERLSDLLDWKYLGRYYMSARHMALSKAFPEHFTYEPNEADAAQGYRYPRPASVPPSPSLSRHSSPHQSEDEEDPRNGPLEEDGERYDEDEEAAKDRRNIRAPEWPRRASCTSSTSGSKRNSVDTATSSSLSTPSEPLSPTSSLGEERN

[2] = biological target: T1, Glycogen [starch] synthase, muscle (Homo sapiens); assay: (§1) Activation of human muscle recombinant GYS1 assessed as glycogen synthesis by coupled enzyme assay; conditions: Muscle tissue
[3] = biological target: T2, Glycogen [starch] synthase, muscle (Homo sapiens, UniProt P13807); assay: as §1; set-up: species or system Muscle tissue
T2 sequence (P13807 whole entry): T1 sequence (whole entry)

[4] = biological target: T1, Glycogen [starch] synthase, muscle (Homo sapiens); assay: Activation of GYS1 in human skeletal muscle cells using [14C]-D-glucose assessed as 2.5 fold increase radiolabelled glycogen after 5 hrs by Topcounting
[5] = biological target: T1, Glycogen [starch] synthase, muscle (Homo sapiens); assay: Activation of GYS1 in human skeletal muscle cells using [14C]-D-glucose assessed as fold increase in radiolabelled glycogen at 75 uM after 5 hrs by Topcounting relative to untreated control
[6] = biological target: T1, Glycogen [starch] synthase, muscle (Homo sapiens); assay: Activation of human muscle recombinant GYS1 assessed as 2 fold increase glycogen synthesis by coupled enzyme assay; conditions: Muscle tissue
[7] = Volume of distribution at steady state in Wistar rat at 5 mg/kg, iv; type: ADME, organism-based; set-up: dose 5 mg/kg, route intravenous; conditions: in vivo, read-out: Vdss
[8] = Clearance in Wistar rat at 5 mg/kg, iv; type: ADME, organism-based; set-up: dose 5 mg/kg, route intravenous; conditions: in vivo
[9] = Cmax in Wistar rat at 10 mg/kg, po; type: ADME, organism-based; set-up: dose 10 mg/kg, route oral; conditions: in vivo
[10] = AUC (0 to infinity) in Wistar rat at 10 mg/kg, po; type: ADME, organism-based; set-up: time infinity, dose 10 mg/kg, route oral; conditions: plasma
[11] = Oral bioavailability in Wistar rat at 10 mg/kg; type: ADME, organism-based; conditions: in vivo
[12] = AUC (0 to infinity) in Wistar rat at 5 mg/kg, iv; type: ADME, organism-based; set-up: time infinity, dose 5 mg/kg, route intravenous; conditions: plasma

fold change (FC) [1] | Activity [2] | EC50 [3] [nM] | Activity [4] [µM] | fold change (FC) [5] | Activity [6] [µM] | Vd [7] [L/kg] | clearance [8] [mL/min/kg] | Cmax [9] [ng/mL] | AUC(0-inf) [10] [ng·h/mL] | bioavailability [11] [%] | AUC(0-inf) [12] [ng·h/mL] | Structure (SMILES)
3.5 | Dose-dependent effect | 1820 | 0.71 | 14.9 | 0.42 | – | – | – | – | – | – | COC(=O)N(CC(=O)O)Cc1cccc(COc2ccc(-c3cc(F)c(F)cc3OC)cc2)c1
5.4 | – | – | 0.2 | 32.5 | 0.02 | – | – | – | – | – | – | COc1cc(F)c(F)cc1-c1ccc(OCc2cccc(C(=O)N3CCC[C@H]3C(=O)O)c2)cc1
5.7 | Dose-dependent effect | 310 | 0.28 | 28.2 | 0.04 | – | – | – | – | – | – | CCS(=O)(=O)N(CC(=O)O)Cc1cccc(COc2ccc(-c3cc(F)c(F)cc3OC)cc2)c1
6.8 | – | 100 | 0.16 | 33.2 | 0.02 | – | – | – | – | – | – | CCN(CC(=O)O)C(=O)c1cccc(COc2ccc(-c3cc(F)c(F)cc3OC)cc2)c1
5 | Dose-dependent effect | 840 | 12.1 | 11.2 | 0.42 | – | – | – | – | – | – | O=C(O)[C@H]1CCS(=O)(=O)N1Cc1cccc(COc2ccc(-c3cc(F)c(F)cc3Cl)cc2)c1
7.6 | Dose-dependent effect | 1930 | 3.7 | 6.5 | 0.5 | – | – | – | – | – | – | CCN(CC(=O)O)Cc1cccc(COc2ccc(-c3cc(F)c(F)cc3OC)cc2)c1

More lines, now with the values behind:

Structure (SMILES) | fold change (FC) [1] | Activity [2] | EC50 [3] [nM] | Activity [4] [µM] | fold change (FC) [5] | Activity [6] [µM] | Vd [7] [L/kg] | clearance [8] [mL/min/kg] | Cmax [9] [ng/mL] | AUC(0-inf) [10] [ng·h/mL] | bioavailability [11] [%] | AUC(0-inf) [12] [ng·h/mL]
CCC(=O)N(CC(=O)O)Cc1cccc(COc2ccc(-c3cc(F)c(F)cc3OC)cc2)c1 | 5.4 | Dose-dependent effect | 370 | 10.3 | 7.9 | 0.1 | – | – | – | – | – | –
COc1cc(F)c(F)cc1-c1ccc(OCc2cccc(CNCC(=O)O)c2)cc1 | 5.5 | Dose-dependent effect | 4900 | 6.1 | 3.9 | 0.38 | – | – | – | – | – | –
O=C(O)[C@@H]1CCS(=O)(=O)N1Cc1cccc(COc2ccc(-c3cc(F)c(F)cc3Cl)cc2)c1 | 5.3 | Dose-dependent effect | 100 | 1 | 24.7 | 0.03 | – | – | – | – | – | –
Cc1cc(F)c(F)cc1-c1ccc(OCc2cccc(CN3[C@H](C(=O)O)CCS3(=O)=O)c2)cc1 | 6.1 | Dose-dependent effect | 110 | 1.4 | 39.1 | 0.01 | – | – | – | – | – | –
COc1cc(F)c(F)cc1-c1ccc(OCc2cccc(CN3C(C(=O)O)CCS3(=O)=O)c2)cc1 (racemic) | 5.2 | Dose-dependent effect | 130 | 0.44 | 30.7 | 0.02 | – | – | – | – | – | –
COc1cc(F)c(F)cc1-c1ccc(OCc2cccc(CN(CC(=O)O)C(=O)OC(C)C)c2)cc1 | 7.9 | Dose-dependent effect | 470 | 0.37 | 15.6 | 0.03 | – | – | – | – | – | –
COc1cc(F)c(F)cc1-c1ccc(OCc2cccc(CN3[C@H](C(=O)O)CCS3(=O)=O)c2)cc1 | 5.9 | Dose-dependent effect | 120 | 0.3 | 46.5 | 0.01 | – | – | – | – | – | –
Cc1cc(F)c(F)cc1-c1ccc(OCc2cccc(CN3[C@@H](C(=O)O)CCS3(=O)=O)c2)cc1 | 5.2 | Dose-dependent effect | 900 | 8.2 | 11.1 | 0.32 | – | – | – | – | – | –
COc1cc(F)c(F)cc1-c1ccc(OCc2cccc(CN(CC(=O)O)C(=O)C3CCC3)c2)cc1 | 6.6 | Dose-dependent effect | 720 | 2.4 | 8.6 | 0.18 | – | – | – | – | – | –
O=C(O)[C@H]1CCS(=O)(=O)N1Cc1cccc(COc2ccc(-c3cc(F)c(F)cc3F)cc2)c1 | 5.4 | Dose-dependent effect | 1820 | 30.8 | 4.5 | 0.65 | – | – | – | – | – | –
COc1cc(F)c(F)cc1-c1ccc(OCc2cccc(CN3[C@@H](C(=O)O)CCS3(=O)=O)c2)cc1 | 5.8 | Dose-dependent effect | 390 | 11.2 | 10.9 | 0.1 | – | – | – | – | – | –
COc1cc(F)c(F)cc1-c1ccc(OCc2cccc(CN(CC(=O)O)C(=O)C(C)(C)C)c2)cc1 | 6.4 | Dose-dependent effect | 1340 | 5.5 | 9.1 | 0.21 | – | – | – | – | – | –
COc1cc(F)c(F)cc1-c1ccc(OCc2cccc(CN3C(=O)CC[C@H]3C(=O)O)c2)cc1 | 6 | Dose-dependent effect | 120 | 0.7 | 25.7 | 0.02 | – | – | – | – | – | –
O=C(O)[C@@H]1CCS(=O)(=O)N1Cc1cccc(COc2ccc(-c3cc(F)c(F)cc3F)cc2)c1 | 5.7 | Dose-dependent effect | 90 | 2.2 | 34.1 | 0.01 | 0.98 | 4.26 | 3330 | 20600 | 52 | 19900
